Values of other authors in US20200069618A1, “COMPOSITIONS HAVING AN AGENT AND AN ENHANCER THEREOF, METHODS OF USE, AND DELIVERY SYSTEMS” (priority 2018, published 2020).

Key:
[1] = tested on: rats; conditions: administration into the basal forebrain
[2] = tested on: rats; conditions: intercerebroventricular administration

CCCCC/C=C\C/C=C\C/C=C\C/C=C\CCCC(=O)NCCO [anandamide, Anandamide]
levels of adenosine [1]: increase levels of adenosine | slow-wave sleep and REM sleep [2]: increase slow-wave sleep and REM sleep | wakefulness [2]: decrease wakefulness
